Broadly, the IC50 is the point on the concentration scale where inhibition reaches its midpoint. Read a high IC50 as a need for much substance. The CC50 is the concentration that lowers cell viability or growth by half. Read a low CC50 as harm at low concentration. Usually bioavailability stands for the share of a dose that reaches the circulation, judged against a reference dose that is usually intravenous. A high value points to much systemic uptake. As a reminder, the clearance is a measure of how efficiently the substance is removed, as volume per time. The low end stands for a low capacity for elimination, the high end for a high capacity for elimination. Usually half-life stands for the time needed for the level to fall by half in the phase considered.

This is an account of results in ChEMBL document CHEMBL1153126, “Substituted tetrahydro-beta-carbolines as potential agents for the treatment of human papillomavirus infection” (Bioorg Med Chem Lett, 2010).

Series [1] has as its system Human papillomavirus type 16. Put plainly: Antiviral activity against Human papillomavirus - 16 infected in human W12-20850 cells by hybrid capture method. Format: functional, organism-based. The settings on record: Human papillomavirus 16, W12-20850.
The nature of series [2]: Cytotoxicity against HFF cells. The format is cell-based. The settings on record: human.
Series [3] can be described thus: Therapeutic index, CC50 for HFF cells to IC50 for Human papillomavirus - 16. The settings on record: read-out: TI. The format is cell-based.
Series [4] in a line: Oral bioavailability in mouse at 5 mg/kg. The format is ADME, organism-based. Conditions: in vivo.
The nature of series [5]: Clearance in rat at 1 mg/kg, iv. On the set-up: dose 1 mg/kg, route intravenous. Format: ADME, organism-based. Conditions: in vivo.
The nature of series [6]: Half life in rat at 1 mg/kg, iv. The format is ADME, organism-based. The arrangement: dose 1 mg/kg, route intravenous. The settings on record: in vivo.

As for `COc1ccc2c3c([nH]c2c1)C(c1ccc(C)cc1)N(C(=O)CCc1ccccc1)CC3` (stereo unspecified), the concentration for half-maximal inhibition (IC50) in series [1] stood at 5.8 µM. In addition, the CC50 in series [2] is > 100 µM. Further, the selectivity ratio in series [3] was > 100.

Consider `COc1ccc(S(=O)(=O)N2CCc3c([nH]c4ccccc34)C2c2ccc(C)cc2)cc1` (stereo unspecified), for which half-maximal inhibition in series [1] (IC50) was put at 66 µM. The cytotoxic concentration (CC50) in series [2] is > 100 µM.

In turn, `Cc1ccc([C@@H]2c3[nH]c4ccc(Cl)cc4c3CCN2C(=O)CCc2ccccc2)cc1` registered a half-maximal inhibitory concentration (IC50) in series [1] of 7.7 µM. In series [2], the CC50 is > 100 µM.

In turn, `CC(C)C[C@@H]1c2[nH]c3ccc(Cl)cc3c2CCN1C(=O)CCc1ccccc1` gave an IC50 in series [1] of 0.88 µM. For the same compound, in series [2], the 50% cytotoxic concentration (CC50) was > 100 µM.

For the compound `O=C(CCc1ccccc1)N1CCc2c([nH]c3ccccc23)C1CN1CCCC1` (stereo unspecified), in series [2], half-maximal cytotoxicity (CC50) was put at 16 µM.

In turn, `Cc1ccc(C2c3[nH]c4ccccc4c3CCN2CC(C)C)cc1` (stereo unspecified) had an IC50 in series [1] of 25 µM. The compound also returned a CC50 in series [2] of 50 µM.

In the case of `Cc1ccc(C2c3[nH]c4cc(F)ccc4c3CCN2C(=O)CCc2ccccc2)cc1` (stereo unspecified), in series [1], it took 1.7 µM to reach half-maximal inhibition (IC50). The CC50 in series [2] is > 100 µM. Also, the selectivity ratio in series [3] is > 100.

Turning to `CC(C)CC1c2[nH]c3ccccc3c2CCN1C(=O)CCc1ccccc1` (stereo unspecified), the half-maximal inhibitory concentration (IC50) in series [1] is 0.33 µM. Besides, in series [2], the midpoint of cytotoxicity, the CC50, lay at 22 µM.

With `Cc1ccc(C2c3[nH]c4ccc(Cl)cc4c3CCN2C(=O)CCc2ccccc2)cc1` (stereo unspecified), half-maximal inhibition in series [1] (IC50) required 0.062 µM. Moreover, in series [2], the CC50 is > 100 µM. Further, the selectivity ratio in series [3] was > 100.

In series [1], `Cc1ccc(C2c3[nH]c4ccccc4c3CCN2C(=O)/C=C/c2ccccc2)cc1` (stereo unspecified) showed an IC50 of 2.3 µM. In addition, in series [2], the CC50 is > 100 µM.

On to `Cc1ccc(C2c3[nH]c4ccccc4c3CCN2C(=O)OCc2ccccc2)cc1` (stereo unspecified), for which, in series [1], the concentration for half-maximal inhibition (IC50) stood at 0.9 µM. Also, the cytotoxic concentration (CC50) in series [2] is > 100 µM.

As to `O=C(CCc1ccccc1)N1CCc2c([nH]c3ccccc23)C1c1cccnc1` (stereo unspecified), the half-maximal inhibitory concentration (IC50) in series [1] was > 100 µM. Further, the CC50 in series [2] was > 100 µM.

In series [1], `O=C(CCc1ccccc1)N1CCc2c([nH]c3ccccc23)C1COCc1ccccc1` (stereo unspecified) yielded an IC50 of 7.3 µM. In addition, the CC50 in series [2] is > 100 µM.

As to `O=C(C1c2[nH]c3ccccc3c2CCN1C(=O)CCc1ccccc1)N1CCCC1` (stereo unspecified), the IC50 in series [1] was > 100 µM. Further, in series [2], the cytotoxic concentration (CC50) was > 100 µM.

The compound `Cc1ccc(C2c3[nH]c4ccccc4c3CCN2C(=O)Oc2cccc3ccccc23)cc1` (stereo unspecified) registered an IC50 in series [1] of 23 µM. For the same compound, the half-maximal cytotoxic concentration (CC50) in series [2] is > 100 µM.

In series [1], `Cc1ccc(C2c3[nH]c4ccc(C)cc4c3CCN2C(=O)CCc2ccccc2)cc1` (stereo unspecified) gave an IC50 of 0.35 µM. Also, the CC50 in series [2] was > 100 µM. The selectivity ratio in series [3] was > 100.

In turn, `COC(=O)N1CCc2c([nH]c3ccccc23)C1c1ccc(C)cc1` (stereo unspecified) returned an IC50 in series [1] of 1.7 µM. Also, the CC50 in series [2] is 31 µM.

In series [1], `Cc1ccc(C2c3[nH]c4ccccc4c3CCN2C(=O)CCc2cccnc2)cc1` (stereo unspecified) yielded an IC50 of 18 µM. This compound also showed a CC50 in series [2] of 94 µM.

In the case of `O=C(CCc1ccccc1)N1CCc2c([nH]c3ccccc23)C1CCc1ccccc1` (stereo unspecified), the IC50 in series [1] came out at 2.7 µM. Besides, the cytotoxic concentration (CC50) in series [2] was > 100 µM.

Consider `O=C(CCc1ccccc1)N1CCc2c([nH]c3ccccc23)C1COc1ccccc1` (stereo unspecified), for which 72 µM corresponded to half-maximal inhibition in series [1] (IC50). For the same compound, the CC50 in series [2] was > 100 µM.

Turning to `Cc1ccc(C2c3[nH]c4ccccc4c3CCN2C(=O)CCc2ccccc2)cc1` (stereo unspecified), in series [1], the IC50 was found to be 1.3 µM. Further, in series [2], the CC50 was > 100 µM. In series [3], the selectivity ratio was found to be 100.

`Cc1ccc(C2c3[nH]c4ccccc4c3CCN2C(=O)CCN(C)C)cc1` (stereo unspecified): the IC50 in series [1] turned out to be 15 µM. In addition, the CC50 in series [2] is 40 µM.

`O=C(CCc1ccccc1)N1CCc2c([nH]c3ccccc23)C1c1ccccc1` (stereo unspecified) registered an IC50 in series [1] of 1.2 µM. In series [2], the CC50 is > 100 µM.

`O=C(OCC1c2[nH]c3ccccc3c2CCN1C(=O)CCc1ccccc1)N1CCCC1` (stereo unspecified): in series [1], the IC50 was > 100 µM. Also, the CC50 in series [2] was > 100 µM.

`COc1ccc2[nH]c3c(c2c1)CCN(C(=O)CCc1ccccc1)C3c1ccc(C)cc1` (stereo unspecified) showed an IC50 in series [1] of 0.57 µM. For the same compound, in series [2], the CC50 was > 100 µM. Further, the selectivity ratio in series [3] was > 100.

`Cc1ccc(C2c3[nH]c4ccccc4c3CCN2C(=O)C#Cc2ccccc2)cc1` (stereo unspecified) displayed an IC50 in series [1] of 20 µM. Also, in series [2], the CC50 is > 100 µM.

Regarding `COC(=O)C1c2[nH]c3ccccc3c2CCN1C(=O)CCc1ccccc1` (stereo unspecified), the IC50 in series [1] turned out to be 20 µM. In series [2], the half-maximal cytotoxic concentration (CC50) was > 100 µM.

`Cc1ccc(C2c3[nH]c4c(C)cccc4c3CCN2C(=O)CCc2ccccc2)cc1` (stereo unspecified) showed an IC50 in series [1] of 2.2 µM. Further, in series [2], the CC50 was > 100 µM. Besides, the selectivity ratio in series [3] was > 100.

`CC(C)C[C@H]1c2[nH]c3ccc(Cl)cc3c2CCN1C(=O)CCc1ccccc1` showed an IC50 in series [1] of 0.018 µM. For the same compound, the CC50 in series [2] is > 100 µM.

For `Cc1ccc(C2c3[nH]c4ccccc4c3CCN2S(C)(=O)=O)cc1` (stereo unspecified), 23 µM corresponded to half-maximal inhibition in series [1] (IC50). The CC50 in series [2] was > 100 µM.

As to `Cc1ccc(C2c3[nH]c4ccccc4c3CCN2Cc2ccccc2)cc1` (stereo unspecified), the IC50 in series [1] was 5.8 µM. Moreover, the CC50 in series [2] came out at 94 µM.

As to `Cc1ccc([C@H]2c3[nH]c4ccc(Cl)cc4c3CCN2C(=O)CCc2ccccc2)cc1`, the IC50 in series [1] came to 0.023 µM. The 50% cytotoxic concentration (CC50) in series [2] was > 100 µM. In series [4], the bioavailability worked out at 73%. Also, the clearance in series [5] was found to be 3.6 mL/min/kg. The half-life in series [6] is 6.2 h.

In turn, `Cc1ccc(C2c3[nH]c4ccc(F)cc4c3CCN2C(=O)CCc2ccccc2)cc1` (stereo unspecified) gave an IC50 in series [1] of 0.44 µM. Also, the CC50 in series [2] was > 100 µM. Besides, the selectivity ratio in series [3] is > 100.
